SMILES: Nc1nc(N)c2nc(-c3ccccc3)c(N)nc2n1
- solubility (mole fraction) (in 1,2-dichloroethane, 283.15 K): 1.72e-06
- solubility (mole fraction) (in 1,2-dichloroethane, 288.15 K): 2.31e-06
- solubility (mole fraction) (in 1,2-dichloroethane, 293.15 K): 3.52e-06
- solubility (mole fraction) (in 1,2-dichloroethane, 298.15 K): 5.23e-06
- solubility (mole fraction) (in 1,2-dichloroethane, 303.15 K): 7.52e-06
- solubility (mole fraction) (in 1,2-dichloroethane, 308.15 K): 1.07e-05
- solubility (mole fraction) (in 1,2-dichloroethane, 313.15 K): 1.7e-05
- solubility (mole fraction) (in 1,2-dichloroethane, 318.15 K): 2.38e-05
- solubility (mole fraction) (in 1,2-dichloroethane, 323.15 K): 3.55e-05
- solubility (mole fraction) (in 2-methoxyethanol, 283.15 K): 0.00188
- solubility (mole fraction) (in 2-methoxyethanol, 288.15 K): 0.00248
- solubility (mole fraction) (in 2-methoxyethanol, 293.15 K): 0.00338
- solubility (mole fraction) (in 2-methoxyethanol, 298.15 K): 0.00454
- solubility (mole fraction) (in 2-methoxyethanol, 303.15 K): 0.00605
- solubility (mole fraction) (in 2-methoxyethanol, 308.15 K): 0.00792
- solubility (mole fraction) (in 2-methoxyethanol, 313.15 K): 0.0106
- solubility (mole fraction) (in 2-methoxyethanol, 318.15 K): 0.014
- solubility (mole fraction) (in 2-methoxyethanol, 323.15 K): 0.0181
- solubility (mole fraction) (in DMSO, 293.15 K): 0.00201
- solubility (mole fraction) (in DMSO, 298.15 K): 0.00281
- solubility (mole fraction) (in DMSO, 303.15 K): 0.00381
- solubility (mole fraction) (in DMSO, 308.15 K): 0.00512
- solubility (mole fraction) (in DMSO, 313.15 K): 0.0068
- solubility (mole fraction) (in DMSO, 318.15 K): 0.00901
- solubility (mole fraction) (in DMSO, 323.15 K): 0.0118
- solubility (mole fraction) (in acetonitrile, 283.15 K): 2.52e-06
- solubility (mole fraction) (in acetonitrile, 288.15 K): 3.43e-06
- solubility (mole fraction) (in acetonitrile, 293.15 K): 5.17e-06
- solubility (mole fraction) (in acetonitrile, 298.15 K): 7.99e-06
- solubility (mole fraction) (in acetonitrile, 303.15 K): 1.16e-05
- solubility (mole fraction) (in acetonitrile, 308.15 K): 1.61e-05
- solubility (mole fraction) (in acetonitrile, 313.15 K): 2.43e-05
- solubility (mole fraction) (in acetonitrile, 318.15 K): 3.47e-05
- solubility (mole fraction) (in acetonitrile, 323.15 K): 4.99e-05
- solubility (mole fraction) (in ethyl acetate, 283.15 K): 2.91e-06
- solubility (mole fraction) (in ethyl acetate, 288.15 K): 4.53e-06
- solubility (mole fraction) (in ethyl acetate, 293.15 K): 7.32e-06
- solubility (mole fraction) (in ethyl acetate, 298.15 K): 9.44e-06
- solubility (mole fraction) (in ethyl acetate, 303.15 K): 1.42e-05
- solubility (mole fraction) (in ethyl acetate, 308.15 K): 1.95e-05
- solubility (mole fraction) (in ethyl acetate, 313.15 K): 2.8e-05
- solubility (mole fraction) (in ethyl acetate, 318.15 K): 3.98e-05
- solubility (mole fraction) (in ethyl acetate, 323.15 K): 6.09e-05
- solubility (mole fraction) (in isobutanol, 283.15 K): 2.88e-06
- solubility (mole fraction) (in isobutanol, 288.15 K): 4.02e-06
- solubility (mole fraction) (in isobutanol, 293.15 K): 6.12e-06
- solubility (mole fraction) (in isobutanol, 298.15 K): 8.74e-06
- solubility (mole fraction) (in isobutanol, 303.15 K): 1.23e-05
- solubility (mole fraction) (in isobutanol, 308.15 K): 1.71e-05
- solubility (mole fraction) (in isobutanol, 313.15 K): 2.55e-05
- solubility (mole fraction) (in isobutanol, 318.15 K): 3.79e-05
- solubility (mole fraction) (in isobutanol, 323.15 K): 5.43e-05
- solubility (mole fraction) (in isopropanol, 283.15 K): 2.02e-06
- solubility (mole fraction) (in isopropanol, 288.15 K): 3.53e-06
- solubility (mole fraction) (in isopropanol, 293.15 K): 4.92e-06
- solubility (mole fraction) (in isopropanol, 298.15 K): 7.42e-06
- solubility (mole fraction) (in isopropanol, 303.15 K): 1.06e-05
- solubility (mole fraction) (in isopropanol, 308.15 K): 1.47e-05
- solubility (mole fraction) (in isopropanol, 313.15 K): 2.08e-05
- solubility (mole fraction) (in isopropanol, 318.15 K): 2.93e-05
- solubility (mole fraction) (in isopropanol, 323.15 K): 4.19e-05
- solubility (mole fraction) (in methanol, 283.15 K): 2.91e-05
- solubility (mole fraction) (in methanol, 288.15 K): 4.31e-05
- solubility (mole fraction) (in methanol, 293.15 K): 6.36e-05
- solubility (mole fraction) (in methanol, 298.15 K): 8.42e-05
- solubility (mole fraction) (in methanol, 303.15 K): 0.000127
- solubility (mole fraction) (in methanol, 308.15 K): 0.000169
- solubility (mole fraction) (in methanol, 313.15 K): 0.00024
- solubility (mole fraction) (in methanol, 318.15 K): 0.00032
- solubility (mole fraction) (in methanol, 323.15 K): 0.000449
- solubility (mole fraction) (in n-butanol, 283.15 K): 3.32e-06
- solubility (mole fraction) (in n-butanol, 288.15 K): 5.33e-06
- solubility (mole fraction) (in n-butanol, 293.15 K): 8.08e-06
- solubility (mole fraction) (in n-butanol, 298.15 K): 1.15e-05
- solubility (mole fraction) (in n-butanol, 303.15 K): 1.61e-05
- solubility (mole fraction) (in n-butanol, 308.15 K): 2.11e-05
- solubility (mole fraction) (in n-butanol, 313.15 K): 3.11e-05
- solubility (mole fraction) (in n-butanol, 318.15 K): 4.32e-05
- solubility (mole fraction) (in n-butanol, 323.15 K): 6.48e-05
- solubility (mole fraction) (in n-methylformamide, 283.15 K): 0.000547
- solubility (mole fraction) (in n-methylformamide, 288.15 K): 0.000726
- solubility (mole fraction) (in n-methylformamide, 293.15 K): 0.00103
- solubility (mole fraction) (in n-methylformamide, 298.15 K): 0.00143
- solubility (mole fraction) (in n-methylformamide, 303.15 K): 0.00197
- solubility (mole fraction) (in n-methylformamide, 308.15 K): 0.00264
- solubility (mole fraction) (in n-methylformamide, 313.15 K): 0.00353
- solubility (mole fraction) (in n-methylformamide, 318.15 K): 0.00461
- solubility (mole fraction) (in n-methylformamide, 323.15 K): 0.00583
- solubility (mole fraction) (in n-propanol, 283.15 K): 4.24e-06
- solubility (mole fraction) (in n-propanol, 288.15 K): 6.13e-06
- solubility (mole fraction) (in n-propanol, 293.15 K): 9.12e-06
- solubility (mole fraction) (in n-propanol, 298.15 K): 1.43e-05
- solubility (mole fraction) (in n-propanol, 303.15 K): 2.02e-05
- solubility (mole fraction) (in n-propanol, 308.15 K): 2.82e-05
- solubility (mole fraction) (in n-propanol, 313.15 K): 3.88e-05
- solubility (mole fraction) (in n-propanol, 318.15 K): 5.29e-05
- solubility (mole fraction) (in n-propanol, 323.15 K): 7.03e-05
- solubility (mole fraction) (in water, 283.15 K): 1.07e-06
- solubility (mole fraction) (in water, 288.15 K): 1.29e-06
- solubility (mole fraction) (in water, 293.15 K): 1.51e-06
- solubility (mole fraction) (in water, 298.15 K): 1.79e-06
- solubility (mole fraction) (in water, 303.15 K): 2.16e-06
- solubility (mole fraction) (in water, 308.15 K): 2.64e-06
- solubility (mole fraction) (in water, 313.15 K): 3.13e-06
- solubility (mole fraction) (in water, 318.15 K): 3.76e-06
- solubility (mole fraction) (in water, 323.15 K): 4.61e-06
